Data on one molecule can be found in US20050153976A1, “Pharmaceutical compositions” (SCHERING CORPORATION, priority 2003, published 2005).

Data set [1] in a line: pKa and log P of the compound of formula I. In kind it is physicochemical. From the text: (§1) A particularly useful compound for use in the present invention is the compound represented by the chemical structural formula I comprising: [drawing 5] This compound is chemically known as 1-[(1-acetyl-4-piperidinyl)acetyl]-2(S)-(1,1-dimethylethyl)-4(S)*4-[phenyl [4(trifluoromethoxy)phenyl]methyl]piperazine and has a molecular weight of 559.3 g/mole. It is a weak base with a pKa of 4.0 corresponding to the ionization of the piperazine ring. The value of log P is 3.0 and the log D at pH 7.4 is calculated to be 2.9. […] The compound is very soluble in both ethanol and methanol (>150 mg/mL). The solubility in most common organic solvents, such as acetonitrile, dimethyl sulfoxide (DMSO), methylene chloride, ethyl acetate, isopropyl alcohol, hexane, and acetone, generally exceeds 50 mg/mL. The free form of the compound is amorphous, but a crystalline hydrogen sulfate salt of this compound can be made. The X-ray powder diffraction (XRPD) patterns of the amorphous free base and the crystalline hydrogen sulfate salt are shown in FIG. 1.

Data set [2] in a line: Solubility of the compound in aqueous media and in organic solvents. The class given is physicochemical.
Text: as §1

A short description of data set [3]: Evaluation of suspension in 0.4% HPMC solution or water (pH, chemical and physical stability, re-suspensibility). The class given is physicochemical. From the text: With proper ratios of carrier to compound, free flowing and uniform powders or solids can be produced. These powders or solids should have the original molecular characteristics of the adsorbed chemicals. The residual solvent (EtOH) used in this process can be reduced to 20 ppm level. These flowable powders or solids are suspended in an aqueous solution, such as 0.4% HPMC solution or water.
The flowable powders or solids have been tested to be very stable for at least two weeks chemically and physically at room temperature (RT) and ICH RH4 conditions (40° C. and 75% relative humility). The suspension solutions (SiO2-Compound or MCC-Compound in 0.4% HPMC solution or water) are also very stable both chemically and physically for at least two weeks at room temperature. The evaluation of SiO2-Compound and MCC-Compound are shown in Example 1.
Preparation of SiO2-Compound of Formula I samples may be carried out by the following representative steps. Uniformly mix 0.5 grams of API free form (amorphous) with 1.0 grams of SiO2 (Syliod®) 244 FP) in a container using a magnetic stirrer. Then add 5.0 mL of ethanol to the container to dissolve the compound completely. Stir at room temperature and dry the solution under N2 gas until a slurry is formed. Dry the slurry at increasing temperature beginning at 25° C. ending at 50° C. over a duration of 1 hour and at 50° C. for overnight under house vacuum. […]

Data set [4] can be described thus: In-vivo pharmacokinetic (PK) studies. Details: species or system rats and dogs. As to conditions: Dose 10 mg/kg. From the text: In-vivo pharmacokinetic (PK) studies in rats and dogs with these compositions show better PK results in terms of AUC, Cmax, and dose proportionality than that of compound only.

As a reminder, the logP is the decadic logarithm of the partition coefficient of the neutral form, usually between octanol and water. Read a low logP as a more hydrophilic compound. The term pKa denotes the pH at which an ionisable group is half protonated. Read a high pKa as a weaker acid or stronger base. Usually solubility stands for the concentration that dissolves in the medium under given conditions. As usually defined, the AUC(0-t) is the area under the concentration-time curve up to a stated or last time point. The Cmax is the peak of the concentration-time curve. The term Tmax denotes the time from dosing to the highest level.

Where “and” joins values, the source holds several entries; their conditions need not be identical. Identical values can stand only once. Bounds are passed on as bounds.

In the case of `CC(=O)N1CCC(CC(=O)N2CCN(C(c3ccccc3)c3ccc(OC(F)(F)F)cc3)C[C@@H]2C(C)(C)C)CC1` (stereo partly drawn) [Compound of Formula I, 1-[(1-acetyl-4-piperidinyl)acetyl]-2(S)-(1,1-dimethylethyl)-4(S)*4-[phenyl [4(trifluoromethoxy)phenyl]methyl]piperazine], the logP in data set [1] was found to be 3. Further, the pKa in data set [1] (weak base, ionization of the piperazine ring) came to 4. The solubility is 1.9 µg/mL and 3.4 µM in data set [2] (aqueous media, aqueous buffer, pH 4.0); 74.6 µg/mL and 133 µM in data set [2] (aqueous media, pH 2.3, aqueous buffer); < 1 µg/mL and < 2 µM in data set [2] (aqueous media, pH 7.4, aqueous buffer, pH greater than 7.4); > 150 mg/mL in data set [2] (organic solvent or mixture, in both ethanol and methanol); > 50 mg/mL in data set [2] (organic solvent or mixture, most common organic solvents (acetonitrile, DMSO, methylene chloride, ethyl acetate, isopropyl alcohol, hexane, acetone)). The “behaviour when suspended in 0.4% HPMC solution” value in data set [3] (SiO2 sample at 100 mg/mL, MCC sample at 102 mg/mL, free form as reference) is “forms a gum”. Also, the “behaviour when suspended in aqueous media” value in data set [3] (aqueous media) is reported as “forms a gum”. Further, the “% AUC (infinity)” value in data set [4] is reported as 1.2%. Also, the exposure AUC(0-t) in data set [4] (in vivo) is 2520 ng·h/mL and 4.5 µM·h. For the same molecule, the Cmax in data set [4] (in vivo) was 260 ng/mL and 500 nM. For the same molecule, the Tmax in data set [4] (in vivo) worked out at 3.3 h. Besides, the AUC(0-inf) in data set [4] (in vivo, read-out: AUC (infinity)) is 4.6 µM·h and 2550 ng·h/mL.
